Source: ChEMBL document CHEMBL1275492, “In vitro activity of ceftobiprole against pathogens from two phase 3 clinical trials of complicated skin and skin structure infections” (2008)

Columns and labels:
Format in all cases: functional
Staphylococcus aureus [1] = experiment: Antibacterial activity against methicillin resistant Staphylococcus aureus obtained from complicated skin and skin structure infections by agar dilution method
Staphylococcus aureus [2] = experiment: Antibacterial activity against methicillin susceptible Staphylococcus aureus obtained from complicated skin and skin structure infections by agar dilution method
[3] = tested on: Staphylococcus epidermidis; experiment: Antibacterial activity against coagulase-negative Staphylococcus epidermidis obtained from complicated skin and skin structure infections by agar dilution method
[4] = tested on: Staphylococcus haemolyticus; experiment: Antibacterial activity against coagulase-negative Staphylococcus haemolyticus obtained from complicated skin and skin structure infections by agar dilution method
[5] = tested on: Staphylococcus lugdunensis; experiment: Antibacterial activity against coagulase-negative Staphylococcus lugdunensis obtained from complicated skin and skin structure infections by agar dilution method
Staphylococcus hominis = experiment: Antibacterial activity against coagulase-negative Staphylococcus hominis obtained from complicated skin and skin structure infections by agar dilution method
Staphylococcus capitis = experiment: Antibacterial activity against coagulase-negative Staphylococcus capitis obtained from complicated skin and skin structure infections by agar dilution method
[6] = tested on: Staphylococcus saprophyticus; experiment: Antibacterial activity against coagulase-negative Staphylococcus saprophyticus obtained from complicated skin and skin structure infections by agar dilution method
Staphylococcus cohnii = experiment: Antibacterial activity against coagulase-negative Staphylococcus cohnii obtained from complicated skin and skin structure infections by agar dilution method
Mammaliicoccus sciuri = experiment: Antibacterial activity against coagulase-negative Staphylococcus sciuri obtained from complicated skin and skin structure infections by agar dilution method
Staphylococcus warneri = experiment: Antibacterial activity against coagulase-negative Staphylococcus warneri obtained from complicated skin and skin structure infections by agar dilution method
[7] = tested on: Staphylococcus lugdunensis; experiment: Antibacterial activity against methicillin-resistant, oxacillin-susceptible, coagulase-negative, mecA-positive Staphylococcus lugdunensis obtained from complicated skin and skin structure infections by agar dilution method
Staphylococcus = experiment: Antibacterial activity against methicillin-susceptible, coagulase-negative Staphylococcus obtained from complicated skin and skin structure infections by agar dilution method
Enterococcus faecalis = experiment: Antibacterial activity against Enterococcus faecalis obtained from complicated skin and skin structure infections by agar dilution method
Enterococcus faecium = experiment: Antibacterial activity against Enterococcus faecium obtained from complicated skin and skin structure infections by agar dilution method
Streptococcus agalactiae = experiment: Antibacterial activity against Streptococcus agalactiae obtained from complicated skin and skin structure infections by agar dilution method
Streptococcus pyogenes = experiment: Antibacterial activity against Streptococcus pyogenes obtained from complicated skin and skin structure infections by agar dilution method
[8] = Antibacterial activity against Streptococcus sp. 'group C' obtained from complicated skin and skin structure infections by agar dilution method
[9] = Antibacterial activity against Streptococcus sp. 'group G' obtained from complicated skin and skin structure infections by agar dilution method
[10] = tested on: Streptococcus constellatus; experiment: Antibacterial activity against Streptococcus constellatus obtained from complicated skin and skin structure infections by agar dilution method
Streptococcus mitis = experiment: Antibacterial activity against Streptococcus mitis obtained from complicated skin and skin structure infections by agar dilution method
[11] = tested on: Staphylococcus intermedius; experiment: Antibacterial activity against Staphylococcus intermedius obtained from complicated skin and skin structure infections by agar dilution method
Aerococcus viridans = experiment: Antibacterial activity against Aerococcus viridans obtained from complicated skin and skin structure infections by agar dilution method
Bacillus = experiment: Antibacterial activity against Bacillus spp. obtained from complicated skin and skin structure infections by agar dilution method
Gemella morbillorum = experiment: Antibacterial activity against Gemella morbillorum obtained from complicated skin and skin structure infections […]
Gemella = experiment: Antibacterial activity against Gemella spp. obtained from complicated skin and skin structure infections by agar dilution method
Lactococcus lactis = experiment: Antibacterial activity against Lactococcus lactis obtained from complicated skin and skin structure infections by agar dilution method
Micrococcus = experiment: Antibacterial activity against Micrococcus spp. obtained from complicated skin and skin structure infections by agar dilution method
Staphylococcus aureus [12] = experiment: Antibacterial activity against Staphylococcus aureus obtained from complicated skin and skin structure infections by agar dilution method

CCC[C@@H]1C[C@@H](C(=O)N[C@@H]([C@H]2O[C@H](SC)[C@H](O)[C@@H](O)[C@H]2O)[C@H](C)Cl)N(C)C1 [CLINDAMYCIN]
> 8 µg/mL: MIC90 [7] | MIC90 (Enterococcus faecalis)
2 µg/mL: MIC50 (Streptococcus mitis) | MIC50 [11]
≤ 0.06 µg/mL: MIC50 (Staphylococcus) | MIC (Enterococcus faecium) | MIC50 [8] | MIC [10] | MIC50 [10]
4 µg/mL: MIC90 (Streptococcus mitis) | MIC90 [11] | MIC90 (Aerococcus viridans) | MIC90 (Bacillus) | MIC90 (Gemella morbillorum) | MIC90 (Gemella) | MIC90 (Lactococcus lactis) | MIC90 (Micrococcus)
0.06 µg/mL: MIC50 [3] | MIC50 [4] | MIC50 [5] | MIC50 (Staphylococcus hominis) | MIC50 (Staphylococcus capitis) | MIC50 [6] | MIC50 (Staphylococcus cohnii) | MIC50 (Mammaliicoccus sciuri) | MIC50 (Staphylococcus warneri) | MIC50 [7] | MIC50 (Enterococcus faecium) | MIC50 (Streptococcus agalactiae) | MIC50 (Streptococcus pyogenes) | MIC90 (Streptococcus pyogenes) | MIC50 [9] | MIC90 [9] | MIC90 [10]
0.25 µg/mL: MIC90 [8]
16 µg/mL: MIC50 (Enterococcus faecalis)
0.12 µg/mL: MIC50 (Staphylococcus aureus [1]) | MIC50 (Staphylococcus aureus [2]) | MIC90 (Staphylococcus aureus [2]) | MIC90 (Staphylococcus)
> 16 µg/mL: MIC90 (Staphylococcus aureus [1]) | MIC90 (Streptococcus agalactiae)
1 µg/mL: MIC90 [3] | MIC90 [4] | MIC90 [5] | MIC90 (Staphylococcus hominis) | MIC90 (Staphylococcus capitis) | MIC90 [6] | MIC90 (Staphylococcus cohnii) | MIC90 (Mammaliicoccus sciuri) | MIC90 (Staphylococcus warneri) | MIC50 (Aerococcus viridans) | MIC50 (Bacillus) | MIC50 (Gemella morbillorum) | MIC50 (Gemella) | MIC50 (Lactococcus lactis) | MIC50 (Micrococcus)

CC[C@H]1OC(=O)[C@H](C)[C@@H](O[C@H]2C[C@@](C)(OC)[C@@H](O)[C@H](C)O2)[C@H](C)[C@@H](O[C@@H]2O[C@H](C)C[C@H](N(C)C)[C@H]2O)[C@](C)(O)C[C@@H](C)C(=O)[C@H](C)[C@@H](O)[C@]1(C)O [ERYTHROMYCIN]
0.12 µg/mL: MIC90 [8]
0.25 µg/mL: MIC50 (Staphylococcus aureus [12]) | MIC50 (Staphylococcus aureus [2]) | MIC50 [3] | MIC50 [4] | MIC50 [5] | MIC50 (Staphylococcus hominis) | MIC50 (Staphylococcus capitis) | MIC50 [6] | MIC50 (Staphylococcus cohnii) | MIC50 (Mammaliicoccus sciuri) | MIC50 (Staphylococcus warneri) | MIC50 (Staphylococcus)
≤ 0.06 µg/mL: MIC50 [10] | MIC (Streptococcus mitis) | MIC50 (Streptococcus mitis) | MIC [11] | MIC50 [11]
8 µg/mL: MIC90 (Aerococcus viridans) | MIC90 (Bacillus) | MIC90 (Gemella morbillorum) | MIC90 (Gemella) | MIC90 (Lactococcus lactis) | MIC90 (Micrococcus)
0.03 µg/mL: MIC50 [8] | MIC50 (Aerococcus viridans) | MIC50 (Bacillus) | MIC50 (Gemella morbillorum) | MIC50 (Gemella) | MIC50 (Lactococcus lactis) | MIC50 (Micrococcus)
0.06 µg/mL: MIC50 (Streptococcus agalactiae) | MIC50 (Streptococcus pyogenes) | MIC90 (Streptococcus pyogenes) | MIC50 [9] | MIC90 [10] | MIC90 (Streptococcus mitis) | MIC90 [11]
> 8 µg/mL: MIC50 (Staphylococcus aureus [1]) | MIC90 (Staphylococcus aureus [2]) | MIC50 [7] | MIC90 (Staphylococcus) | MIC50 (Enterococcus faecalis)
2 µg/mL: MIC50 (Enterococcus faecium)
1 µg/mL: MIC90 [9]
> 16 µg/mL: MIC90 (Staphylococcus aureus [12]) | MIC90 [3] | MIC90 [4] | MIC90 [5] | MIC90 (Staphylococcus hominis) | MIC90 (Staphylococcus capitis) | MIC90 [6] | MIC90 (Staphylococcus cohnii) | MIC90 (Mammaliicoccus sciuri) | MIC90 (Staphylococcus warneri) | MIC90 (Enterococcus faecalis) | MIC90 (Streptococcus agalactiae)
